Compound in experiment [1]: C1=CC2=C(C=C(C(=C2N=C1)O)N=NC3=CC4=C(C=C3)C=C(C=C4)S(=O)(=O)O)S(=O)(=O)O
The experiment can be described thus: relative viability (nuclei count vs DMSO), 5 days (fraction); higher = more cells survive. The gist of the method:
(§1)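 Viability was defined as treated-well nuclei divided by vehicle-well nuclei, with the median taken over replicate plates. Cells from lung cancer lines sat overnight at 37 °C in 1536-well plates, received five √10-spaced library-drug doses by pinning on vehicle-anchored plates, and grew 5 days without medium change before one-step fixation, permeabilisation and Hoechst staining, 4× imaging and MetaXpress nuclear counts. Only plates with control CV under 25% and at least one doubling were kept.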

Compound in the next experiment: O=C(NC1CCNCC1)c1n[nH]cc1NC(=O)c1c(Cl)cccc1Cl [AT-7519]
The experiment is described as above. An outline of the steps: as §1

As to PC-14, the relative viability in experiment [1] (0.08 µM) was determined as 1.02; in experiment [1] (0.253 µM) it was 0.95; in experiment [1] (0.8 µM) it was 0.944; in experiment [1] (2.53 µM) it was 1.07; in experiment [1] (8 µM) it was 0.94; in the experiment with AT-7519 (0.01 µM), 0.971. The relative viability with AT-7519 (0.03162 µM) turned out to be 0.94; with AT-7519 (0.3162 µM) it was 0.928; with AT-7519 (1 µM), 0.714.
Regarding RERF-LC-KJ, the relative viability in experiment [1] (0.08 µM) worked out at 1.08; in experiment [1] (0.253 µM) it was 1.04; in experiment [1] (0.8 µM), 1.03; in experiment [1] (2.53 µM) it was 1.01; in experiment [1] (8 µM), 0.967; with AT-7519 (0.01 µM), 1.01. Further, the relative viability with AT-7519 (0.03162 µM) is 0.995; with AT-7519 (0.3162 µM) it was 0.991; with AT-7519 (1 µM), 0.675.
For the cell line SK-LU-1, the relative viability in experiment [1] (0.08 µM) turned out to be 1.17; in experiment [1] (0.253 µM), 1.02; in experiment [1] (0.8 µM) it was 1.02; in experiment [1] (2.53 µM) it was 0.979; in experiment [1] (8 µM) it was 0.988; in the experiment with AT-7519 (0.01 µM), 1.08. Also, the values for the relative viability in the experiment with AT-7519 (0.03162 µM), with AT-7519 (0.3162 µM) and with AT-7519 (1 µM) were 0.959, 0.924 and 0.73, respectively.
As to SK-MES-1, the relative viability in experiment [1] (0.08 µM) was found to be 1.03; in experiment [1] (0.253 µM), 0.967; in experiment [1] (0.8 µM), 0.968; in experiment [1] (2.53 µM), 0.987; in experiment [1] (8 µM), 1.02; in the experiment with AT-7519 (0.01 µM) it was 1.02. Moreover, the values for the relative viability with AT-7519 (0.03162 µM), in the experiment with AT-7519 (0.3162 µM) and with AT-7519 (1 µM) were 0.968, 1 and 0.771, respectively.
On to SW 900, for which the relative viability in experiment [1] (0.08 µM) was 1.07; in experiment [1] (0.253 µM), 0.971; in experiment [1] (0.8 µM), 0.802; in experiment [1] (2.53 µM) it was 0.918; in experiment [1] (8 µM), 0.841; with AT-7519 (0.01 µM), 0.771. Further, the relative viability came to 0.866 with AT-7519 (0.03162 µM), 0.786 with AT-7519 (0.3162 µM) and 0.657 with AT-7519 (1 µM).
With SW 1573, the relative viability in experiment [1] (0.08 µM) worked out at 1.11; in experiment [1] (0.253 µM), 1.03; in experiment [1] (0.8 µM), 0.944; in experiment [1] (2.53 µM), 1.01; in experiment [1] (8 µM), 0.815; with AT-7519 (0.01 µM), 0.988. In addition, the relative viability in the experiment with AT-7519 (0.03162 µM) was determined as 0.84; in the experiment with AT-7519 (0.3162 µM) it was 0.753; in the experiment with AT-7519 (1 µM), 0.312.

The values are drawn from the supplement of paper PMC10307832.
